What all share (assay type): in vivo
The subject of one assay is Füllinsdorfer Ratten. Put plainly: Conflict test in rats (single-lever Skinner box, food pellet reward combined with foot shock). The conditions noted are these: Rattus norvegicus; female rats, by gavage half an hour before the one-hour main test, Wilcoxon test vs. saline pretreatment; read-out: erste signifikant anxiolytisch wirksame Dosis. As for the experimental part:
Die Testapparatur ist eine Eintasten-Skinnerbox mit Futterpillengeber.
Während 3 einstündigen Vorversuchen (an drei verschiedenen Tagen) werden hungrige weibliche Füllinsdorfer Ratten (SPF, 190-230 g) darauf trainiert, die Tast des Futterpillengebers zu drücken, um Futterpillen von je 45 mg zu erhalten (jeder Tastendruck wird belohnt); im dritten Vorversuch erreichen die Ratten eine Rate von 150-200 Tastenbetätigungen pro Stunde.
In einem vierten Vorversuch wird jede durch Tastendruck hervorgerufene Pillenbelohnung mit einem kurzen elektrischen Fuss-Schock (1,0 mA) kombiniert. Die Ratten, welche mit dieser Konflikt-Situation konfrontiert sind, betätigen anfangs noch etwa 5-10mal die Drucktaste und hören dann aus Angst gänzlich auf.
In einem fünften Vorversuch können die Ratten die Taste des Futterpillengebers wieder ohne zusätzlichen Fuss-Schock drücken, wobei wiederum eine Rate von 150-200 Tastenbetätigungen pro Stunde erreicht wird.
In einem sechsten Vorversuch wird eine Selektion der Testtiere durchgeführt. Den Testtieren werden eine halbe Stunde vor Beginn dieses Vorversuches peroral 10 mg/kg Chlordiazepoxid verabreicht; jede Pillenbelohnung wird wiederum mit einem Fuss-Schock kombiniert (Konflikt). Nur Ratten, die in diesem Vorversuch eine Rate von 20-50 Tastenbetätigungen erreichen (vgl. die 5-10 Tastenbetätigungen im vierten Vorversuch) werden als geeignete Testtiere für die Prüfung von potentiellen Anxiolytika behalten. Die Eliminationsrate in diesem Vorversuch beträgt 5%.
Im Hauptversuch werden zur Prüfung der potentiellen Anxiolytika pro Substanz und pro Dosis in der Regel 8 Ratten eingesetzt. Eine unbehandelte Kontrollgruppe ist nicht erforderlich, da jedes Tier als seine eigene Kontrolle dient. Die Testsubstanzen, welche in einem Gemisch von destilliertem Wasser (10 ml) und Tween 80 (2 Tropfen) gelöst oder suspendiert sind, werden den Tieren mit Hilfe einer Schlundsonde eine halbe Stunde vor dem einstündigen Hauptversuch verabreicht. […]

Assay [1] deals with Maus. Put plainly: Antipentetrazole test. The conditions noted are these: Antipentetrazoltest, bis zu einer Dosis von 300 mg/kg. The text has this:
(§1) Bei den oben genannten Versuchen handelt es sich um allgemein bekannte Standardmethoden zur Bestimmung von sedierender und muskelrelaxierender Wirkung.

In assay [2] the test system is Maus. Put plainly: Maximal electroshock test. To be noted: Mus musculus, maximaler Elektroschock. A general note: The maximal electroshock test induces tonic seizures with an electrical stimulus.
Assay [3] relates to Maus. Put plainly: 3-Mercaptopropionic acid test. The conditions noted are these: Mus musculus, 3-Mercaptopropionsäure-Test.
Description: as §1

Assay [4] deals with Maus. Put plainly: Chimney test. To be noted: Kamintest, bis zu einer Dosis von 300 mg/kg.
Description: as §1

Assay [5] concerns Maus. Put plainly: Rotating rod test. The conditions noted are these: Versuch am Rotierstab, bis zu einer Dosis von 300 mg/kg.
Description: as §1

A value given as a limit tells only on which side of the number the result lay.

`CN1CC(=O)N=C1NC(=O)Nc1cccs1` [1-(1-Methyl-4-oxo-2-imidazolin-2-yl)-3-(2-thienyl)harnstoff]: the minimal effective dose in the assay on Füllinsdorfer Ratten is 30 mg/kg.

Take `CN1CC(=O)N=C1NC(=O)Nc1ccsc1` [1-(1-Methyl-4-oxo-2-imidazolin-2-yl)-3-(3-thienyl)harnstoff]: in the assay with Füllinsdorfer Ratten, the minimal effective dose worked out at 10 mg/kg.

By ED50 is commonly meant the midpoint of the dose-response relation. A higher ED50 goes with weaker potency. For `CN1CC(=O)N=C1NC(=O)Nc1csc(Cl)c1` [1-(5-Chlor-3-thienyl)-3-(1-methyl-4-oxo-2-imidazolin-2-yl)harnstoff], the Aktivität entry in the assay with Maus [1], with Maus [4] and in the assay with Maus [5] was “keinerlei Aktivität” each time. The ED50 was greater than 100 mg/kg in the assay on Maus [2] and 76 mg/kg in the assay on Maus [3]. For the same compound, the minimal effective dose with Füllinsdorfer Ratten came to 3 mg/kg.

(Values after EP0016371A1, “Urea derivatives, process and intermediates for their preparation, medicaments containing such a urea derivative and its therapeutical use” (F. HOFFMANN-LA ROCHE & CO. Aktiengesellschaft, priority 1979, dated 1980).)
